# Measurements from ChEMBL document CHEMBL4715842, “Sulfonamide/sulfamate switch with a series of piperazinylureido derivatives: Synthesis, kinetic and in silico evaluation as carbonic anhydrase isoforms I, II, IV, and IX inhibitors” (Eur J Med Chem, 2020).
# Assays:
# Carbonic anhydrase 1 = Carbonic anhydrase 1 (Homo sapiens, UniProt P00915); experiment: Inhibition of recombinant human carbonic anhydrase 1 incubated for 15 mins prior to testing measured for 10 to 100 secs by phenol red-based stopped-flow CO2 hydration assay
# Carbonic anhydrase 2 = Carbonic anhydrase 2 (Homo sapiens, UniProt P00918); experiment: Inhibition of recombinant human carbonic anhydrase 2 incubated for 15 mins prior to testing measured for 10 to 100 secs by phenol red-based stopped-flow CO2 hydration assay
# Carbonic anhydrase 4 = Carbonic anhydrase 4 (Homo sapiens, UniProt P22748); experiment: Inhibition of recombinant human carbonic anhydrase 4 incubated for 15 mins prior to testing measured for 10 to 100 secs by phenol red-based stopped-flow CO2 hydration assay
# Carbonic anhydrase 9 = Carbonic anhydrase 9 (Homo sapiens, UniProt Q16790); experiment: Inhibition of recombinant human carbonic anhydrase 9 incubated for 15 mins prior to testing measured for 10 to 100 secs by phenol red-based stopped-flow CO2 hydration assay
# Homo sapiens = species on record: Homo sapiens; experiment: Selectivity ratio of Ki for inhibition of recombinant human carbonic anhydrase 2 to Ki for Ki for inhibition of recombinant human carbonic anhydrase 9
# Carbonic anhydrase 4, sequence (P22748 whole entry): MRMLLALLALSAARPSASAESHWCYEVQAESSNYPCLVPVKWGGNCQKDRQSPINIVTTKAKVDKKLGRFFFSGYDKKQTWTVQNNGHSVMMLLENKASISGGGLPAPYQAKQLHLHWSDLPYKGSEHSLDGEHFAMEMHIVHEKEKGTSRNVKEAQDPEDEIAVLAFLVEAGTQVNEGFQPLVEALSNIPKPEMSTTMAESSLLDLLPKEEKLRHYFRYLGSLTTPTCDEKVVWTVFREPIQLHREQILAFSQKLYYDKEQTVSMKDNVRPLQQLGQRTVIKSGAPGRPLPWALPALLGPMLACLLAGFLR
# Carbonic anhydrase 1, sequence (P00915 whole entry): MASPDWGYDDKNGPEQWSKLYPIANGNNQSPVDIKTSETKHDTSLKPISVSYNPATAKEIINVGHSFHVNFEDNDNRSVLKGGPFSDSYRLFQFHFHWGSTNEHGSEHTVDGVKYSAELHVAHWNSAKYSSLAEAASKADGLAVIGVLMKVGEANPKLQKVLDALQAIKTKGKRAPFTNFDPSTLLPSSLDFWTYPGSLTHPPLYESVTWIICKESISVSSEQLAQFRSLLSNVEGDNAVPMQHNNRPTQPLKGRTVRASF
Compound,Ki (Carbonic anhydrase 1) [nM],Ki (Carbonic anhydrase 2) [nM],Ki (Carbonic anhydrase 4) [nM],Ki (Carbonic anhydrase 9) [nM],Ratio Ki (Homo sapiens)
NS(=O)(=O)Oc1ccc(NC(=O)N2CCN(c3ccc(Cl)c(Cl)c3)CC2)cc1,919,45.4,1640,,
COc1cc(-c2ccnc(N3CCN(C(=O)Nc4ccc(OS(N)(=O)=O)cc4)CC3)n2)cc(OC)c1OC,5280,6.8,280,24200,
COc1ccc(-c2ccnc(N3CCN(C(=O)Nc4ccc(OS(N)(=O)=O)cc4)CC3)n2)cc1,3930,29.1,384,31800,
COc1ccc(N2CCN(C(=O)Nc3ccc(OS(N)(=O)=O)cc3)CC2)cc1,,,1630,,
NS(=O)(=O)Oc1ccc(NC(=O)N2CCN(c3nccc(-c4cccc(Br)c4)n3)CC2)cc1,7770,124,831,30500,
Cc1cccc(-c2ccnc(N3CCN(C(=O)Nc4ccc(OS(N)(=O)=O)cc4)CC3)n2)c1,4070,207,1320,93300,
NS(=O)(=O)Oc1ccc(NC(=O)N2CCN(c3ccc(Cl)cc3)CC2)cc1,,,2590,,
CCCCCCCCCCN1CCN(C(=O)Nc2ccc(OS(N)(=O)=O)cc2)CC1,680,21,4190,32200,
CCCCCCCCN1CCN(C(=O)Nc2ccc(OS(N)(=O)=O)cc2)CC1,752,15.9,4800,31400,
NS(=O)(=O)Oc1ccc(NC(=O)N2CCN(c3nccc(-c4cccc(C(F)(F)F)c4)n3)CC2)cc1,3470,58.7,458,27100,

# The remaining lines, values ahead:
Ki (Carbonic anhydrase 1) [nM],Ki (Carbonic anhydrase 2) [nM],Ki (Carbonic anhydrase 4) [nM],Ki (Carbonic anhydrase 9) [nM],Ratio Ki (Homo sapiens),Compound
,,994,,,COc1cccc(N2CCN(C(=O)Nc3ccc(OS(N)(=O)=O)cc3)CC2)c1
760,36.2,,32700,,NS(=O)(=O)Oc1ccc(NC(=O)N2CCN(Cc3cc4ccccc4o3)CC2)cc1
,,,,7,NS(=O)(=O)Oc1ccc(NC(=O)N2CCN(c3ccccc3)CC2)cc1
,,,,16,Cc1cccc(N2CCN(C(=O)Nc3ccc(OS(N)(=O)=O)cc3)CC2)c1
692,56.9,759,29700,,Cc1ccccc1N1CCN(C(=O)Nc2ccc(OS(N)(=O)=O)cc2)CC1
,,1090,,,Cc1cccc(N2CCN(C(=O)Nc3ccc(OS(N)(=O)=O)cc3)CC2)c1C
2370,706,4100,156000,,NS(=O)(=O)Oc1ccc(NC(=O)N2CCN(c3nccc(-c4ccccc4)n3)CC2)cc1
